Test results from patent publication US20250281491A1, “DUAL FUNCTIONING IMMUNE MODULATING COMPOUNDS, FORMULATIONS, AND USES THEREOF” (THE REGENTS OF THE UNIVERSITY OF MICHIGAN, priority 2022, published 2025).

Assays:
PI3K β = molecular target: T1, PI3K β (Homo sapiens, UniProt P42338); assay: PI3K inhibition assay (BPS Bioscience kit, ADP-Glo luminescence); type: biochemical; conditions: for IC50: purified enzyme
T1 construct: purchased BPS Bioscience (San Diego, CA, USA)
Protocol: (§1) The IC50 of compounds to inhibit different PI3K isoforms were calculated using Prism 8.
(§2) PI3Kα, PI3K β, PI3Kγ, and PI3Kδ binding assay kits were obtained from BPS Bioscience (San Diego, CA, USA). The assays were conducted according to manufacturer's protocols in 96-well microplates. Briefly, 5 μL PI3K lipid substrate was added to all wells. […] 10 μL of PI3Ka (0.5 ng/μL, PI3K β 4 ng/μL, PI3Kγ 4 ng/μL, or PI3Kδ 13 ng/μL) was added to initiate reaction. The plate was carefully shaken, and the reaction mixture was incubated at 30° C. for 40 minutes. Then 25 μL ADP-Glo reagent (Promega, Madison, WI, USA) was added to each well and the reactions were performed in darkness for 45 minutes. Finally, 50 μL of kinase detection reagent (Promega, Madison, WI, USA) was added to each well and the reactions were performed in darkness for 30 minutes. The luminescence of the reaction mixture was read on a Synergy 2 microplate reader (Biotek).

PI3Kα = molecular target: T2, PI3Kα (Homo sapiens, UniProt P42336); assay: as above; type: biochemical; conditions: for IC50: purified enzyme
T2 construct: purchased BPS Bioscience (San Diego, CA, USA)
T2 sequence (P42336 whole entry): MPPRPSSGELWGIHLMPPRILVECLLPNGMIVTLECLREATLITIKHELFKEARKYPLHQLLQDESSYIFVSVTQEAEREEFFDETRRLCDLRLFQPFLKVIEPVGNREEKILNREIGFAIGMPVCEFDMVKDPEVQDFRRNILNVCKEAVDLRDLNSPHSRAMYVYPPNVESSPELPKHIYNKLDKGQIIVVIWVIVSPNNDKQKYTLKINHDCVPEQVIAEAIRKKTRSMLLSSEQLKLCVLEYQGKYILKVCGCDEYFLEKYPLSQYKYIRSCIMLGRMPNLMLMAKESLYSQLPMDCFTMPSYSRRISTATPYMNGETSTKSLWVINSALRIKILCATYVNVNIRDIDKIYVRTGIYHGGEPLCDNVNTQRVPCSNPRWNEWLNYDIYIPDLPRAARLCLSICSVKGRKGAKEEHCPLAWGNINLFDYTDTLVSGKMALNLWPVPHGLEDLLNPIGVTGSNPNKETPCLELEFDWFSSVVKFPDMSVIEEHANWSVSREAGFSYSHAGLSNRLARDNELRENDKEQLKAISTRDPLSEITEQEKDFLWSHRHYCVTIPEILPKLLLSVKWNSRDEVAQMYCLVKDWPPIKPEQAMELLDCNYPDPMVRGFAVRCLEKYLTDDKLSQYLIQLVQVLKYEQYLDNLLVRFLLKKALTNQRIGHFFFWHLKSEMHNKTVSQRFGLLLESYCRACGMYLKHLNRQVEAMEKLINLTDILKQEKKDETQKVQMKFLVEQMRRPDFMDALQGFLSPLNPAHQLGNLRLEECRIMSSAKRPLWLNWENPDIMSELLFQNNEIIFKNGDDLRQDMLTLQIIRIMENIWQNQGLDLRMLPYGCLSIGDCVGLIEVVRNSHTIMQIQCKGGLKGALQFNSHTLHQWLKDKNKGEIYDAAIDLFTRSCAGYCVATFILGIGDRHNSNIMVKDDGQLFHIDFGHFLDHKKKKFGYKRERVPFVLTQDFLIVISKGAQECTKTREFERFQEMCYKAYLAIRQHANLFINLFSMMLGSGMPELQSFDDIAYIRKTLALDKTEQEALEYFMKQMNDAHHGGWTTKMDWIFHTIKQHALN
T2 sequence (P27986 whole entry partner): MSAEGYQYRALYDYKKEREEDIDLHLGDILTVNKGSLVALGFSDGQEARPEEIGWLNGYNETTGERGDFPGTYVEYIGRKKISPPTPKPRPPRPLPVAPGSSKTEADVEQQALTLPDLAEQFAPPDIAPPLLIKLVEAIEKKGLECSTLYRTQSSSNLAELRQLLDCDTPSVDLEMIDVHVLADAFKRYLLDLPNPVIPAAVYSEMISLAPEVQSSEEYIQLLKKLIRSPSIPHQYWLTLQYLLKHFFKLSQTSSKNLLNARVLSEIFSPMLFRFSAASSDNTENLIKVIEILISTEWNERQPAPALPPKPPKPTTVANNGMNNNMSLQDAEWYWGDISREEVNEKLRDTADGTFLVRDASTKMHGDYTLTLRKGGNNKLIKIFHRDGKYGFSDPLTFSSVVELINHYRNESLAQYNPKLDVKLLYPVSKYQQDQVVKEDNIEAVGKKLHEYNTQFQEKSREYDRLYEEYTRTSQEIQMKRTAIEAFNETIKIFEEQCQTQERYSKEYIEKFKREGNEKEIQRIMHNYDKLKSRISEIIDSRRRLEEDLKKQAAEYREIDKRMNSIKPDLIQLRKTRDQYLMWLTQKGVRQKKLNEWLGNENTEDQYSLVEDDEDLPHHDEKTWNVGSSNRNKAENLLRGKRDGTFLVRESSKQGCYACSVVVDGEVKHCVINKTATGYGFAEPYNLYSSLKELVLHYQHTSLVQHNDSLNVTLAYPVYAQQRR
Protocol: as §1, §2

PI3Kγ = molecular target: T3, PI3Kγ (Homo sapiens, UniProt P48736); assay: as above; type: biochemical; conditions: for IC50: purified enzyme
T3 construct: purchased BPS Bioscience (San Diego, CA, USA)
T3 sequence (P48736 whole entry): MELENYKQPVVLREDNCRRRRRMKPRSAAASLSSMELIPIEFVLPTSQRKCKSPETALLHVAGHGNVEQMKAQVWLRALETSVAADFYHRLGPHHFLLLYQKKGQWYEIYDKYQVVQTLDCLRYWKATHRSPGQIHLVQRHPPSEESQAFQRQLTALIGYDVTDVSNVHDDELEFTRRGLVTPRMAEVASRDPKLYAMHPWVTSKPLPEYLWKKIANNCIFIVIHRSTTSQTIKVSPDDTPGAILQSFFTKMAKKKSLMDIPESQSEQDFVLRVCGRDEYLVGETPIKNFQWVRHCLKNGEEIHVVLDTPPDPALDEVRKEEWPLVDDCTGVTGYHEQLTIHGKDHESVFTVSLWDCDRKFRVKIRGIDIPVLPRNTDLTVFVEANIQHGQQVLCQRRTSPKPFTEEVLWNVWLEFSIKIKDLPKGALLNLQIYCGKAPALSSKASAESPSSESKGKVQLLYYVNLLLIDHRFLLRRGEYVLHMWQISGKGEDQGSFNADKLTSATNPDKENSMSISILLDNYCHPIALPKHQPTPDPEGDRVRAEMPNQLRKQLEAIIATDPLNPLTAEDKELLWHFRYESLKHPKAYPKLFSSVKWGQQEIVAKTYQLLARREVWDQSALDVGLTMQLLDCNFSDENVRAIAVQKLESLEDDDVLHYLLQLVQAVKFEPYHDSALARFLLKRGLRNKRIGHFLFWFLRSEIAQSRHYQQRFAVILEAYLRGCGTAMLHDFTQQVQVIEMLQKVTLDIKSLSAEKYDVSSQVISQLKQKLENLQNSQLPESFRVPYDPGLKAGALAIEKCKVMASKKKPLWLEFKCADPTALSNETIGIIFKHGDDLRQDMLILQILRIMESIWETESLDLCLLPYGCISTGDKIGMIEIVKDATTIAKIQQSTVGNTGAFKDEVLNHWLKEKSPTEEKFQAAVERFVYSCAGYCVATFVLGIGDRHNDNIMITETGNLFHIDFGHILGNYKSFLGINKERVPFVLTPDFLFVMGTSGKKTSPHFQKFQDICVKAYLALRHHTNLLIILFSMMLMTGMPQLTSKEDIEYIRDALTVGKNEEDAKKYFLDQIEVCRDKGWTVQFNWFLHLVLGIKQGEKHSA
Protocol: as §1, §2

PI3Kδ = molecular target: T4, PI3Kδ (Homo sapiens, UniProt O00329); assay: as above; type: biochemical; conditions: for IC50: purified enzyme
T4 construct: purchased BPS Bioscience (San Diego, CA, USA)
T4 sequence (O00329 whole entry): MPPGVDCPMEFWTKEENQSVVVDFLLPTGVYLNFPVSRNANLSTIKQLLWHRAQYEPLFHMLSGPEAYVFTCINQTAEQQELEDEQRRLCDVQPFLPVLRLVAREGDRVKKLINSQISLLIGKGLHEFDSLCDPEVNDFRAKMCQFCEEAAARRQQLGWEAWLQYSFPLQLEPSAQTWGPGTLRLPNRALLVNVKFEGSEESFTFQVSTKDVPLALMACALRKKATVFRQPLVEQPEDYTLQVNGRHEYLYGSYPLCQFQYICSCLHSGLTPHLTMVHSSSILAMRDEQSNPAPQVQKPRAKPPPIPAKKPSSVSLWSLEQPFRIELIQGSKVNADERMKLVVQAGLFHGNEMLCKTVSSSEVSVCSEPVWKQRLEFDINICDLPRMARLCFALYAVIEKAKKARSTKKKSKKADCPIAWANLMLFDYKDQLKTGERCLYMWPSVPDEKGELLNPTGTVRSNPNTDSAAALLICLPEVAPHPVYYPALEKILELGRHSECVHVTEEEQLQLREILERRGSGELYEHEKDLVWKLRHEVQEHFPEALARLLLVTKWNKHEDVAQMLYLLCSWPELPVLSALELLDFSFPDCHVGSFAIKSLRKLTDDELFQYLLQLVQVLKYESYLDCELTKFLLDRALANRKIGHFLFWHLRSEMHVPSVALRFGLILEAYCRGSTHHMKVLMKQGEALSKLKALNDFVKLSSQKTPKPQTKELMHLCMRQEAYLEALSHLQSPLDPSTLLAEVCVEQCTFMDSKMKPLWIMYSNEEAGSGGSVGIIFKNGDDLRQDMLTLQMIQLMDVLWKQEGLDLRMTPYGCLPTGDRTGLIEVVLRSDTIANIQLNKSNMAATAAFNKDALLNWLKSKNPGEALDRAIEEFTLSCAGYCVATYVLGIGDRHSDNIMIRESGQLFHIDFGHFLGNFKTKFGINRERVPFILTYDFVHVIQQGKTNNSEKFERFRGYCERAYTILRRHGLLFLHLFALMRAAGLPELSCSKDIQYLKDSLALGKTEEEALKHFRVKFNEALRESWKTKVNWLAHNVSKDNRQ
T4 sequence (P27986 whole entry partner): as the sequence (P27986 whole entry partner) above
Protocol: as §1, §2

STING = STING activation in THP-1 ISG Blue cells (QUANTI-Blue, OD 655); type: cell-based; conditions: 24 hours, FIG. 1
Protocol: FIG. 1 is a graph of STING activation for different concentrations of compounds as determined by incubating with THP-1 ISG Blue cells for 24 hours, mixing with ‘QUANTI-Blue’ solution and measuring OD 655.
FIG. 2 is a graph of STING activation for different concentrations of DMA01-166 as determined by incubating with THP-1 ISG Blue cells for 24 hours, mixing with ‘QUANTI-Blue’ solution and measuring OD 655.
FIG. 3 is a graph of STING activation for different concentrations of MSA-2 as determined by incubating with THP-1 ISG Blue cells for 24 hours, mixing with ‘QUANTI-Blue’ solution and measuring OD 655.
THP-1 ISG Blue cells analysis is a standard assay to test STING activation in vitro. […] Different concentrations of DMA01-166 (FIG. 2) and MSA-2 (FIG. 3) were incubated with THP-1 ISG Blue cells for 24 hours.

[1] = tested on: mouse bone marrow derived dendritic cells (BMDCs); assay: BMDC activation, upregulation of CD80 and CD86 by flow cytometry; type: cell-based; conditions: 24 hours
Protocol: FIG. 5 are graphs of BMDC activation as measured based on the upregulation of CD80 and CD86 by flow cytometry for different concentrations of DMA01-166 incubated with mouse bone marrow derived dendritic cells (BMDCs) for 24 hours.
STING activation induces BMDC activation. To test the ability of DMA01-166 in activating BMDC, BMDCs activation was measured based on the upregulation of CD80 and CD86 by flow cytometry. […] Different concentrations of DMA01-166 were incubated with BMDC cells for 24 hours.

[2] = tested on: mouse bone marrow derived dendritic cells (BMDCs); assay: mIFNβ secretion from BMDCs by ELISA; type: cell-based; conditions: 24 hours; for mIFNβ secretion: BMDC supernatants, 10 μM, FIG. 6
Protocol: FIG. 7 a graph of mIFNβ concentrations as measured by ELISA from the supernatants of mouse bone marrow derived dendritic cells (BMDCs) incubated with different concentrations of DMA01-166 for 24 hours.
STING activation in BMDC results in mIFNβ secretion. […] Different concentrations of DMA01-166 (FIG. 7) were incubated with BMDC cells for 24 hours.

[3] = tested on: M2 polarized RAW264.7 cells; assay: M1 macrophage ratio (CD80 and CD86, flow cytometry) from M2 polarized RAW264.7 cells; type: cell-based; conditions: 2 days; for M1 macrophage percentage among all the macrophages: 10 μM, FIG. 9
Protocol: FIG. 10 is a graph of M1 macrophage ratio as determined by measuring CD80 and CD86 as markers for M1 macrophage by flow cytometry from M2 polarized RAW264.7 cells incubated with different concentrations of DMA01-166 for 2 days.
Macrophage polarization effects of the dual functioning NCEs were further tested by first inducing RAW264.7 cells to M2 macrophage, and then treating with different drugs to test the M1 macrophage percentage among all the macrophages.

[4] = tested on: KPC transgenic pancreatic cancer model; assay: In vivo efficacy on KPC transgenic pancreatic cancer model; conditions: FIG. 13
Protocol: FIG. 13 is a graph of the in vivo efficacy on KPC transgenic pancreatic cancer model of an exemplary albumin nanoformulations of: DMA01-166 (D166) and DMA01-166 plus PD-1 antibody (D166+PD-1) with and without paclitaxel (Nano-P).
The in vivo efficacy of DMA01-166 and its albumin nanoformulation was tested on KPC transgenic model.

[5] = tested on: M2 polarized RAW264.7 cells; assay: TNFα secretion from M2 polarized RAW264.7 cells by ELISA (macrophage polarization); conditions: 10 μM, 2 days, vs M2 control group, FIG. 8

T1 sequence (P42338 whole entry): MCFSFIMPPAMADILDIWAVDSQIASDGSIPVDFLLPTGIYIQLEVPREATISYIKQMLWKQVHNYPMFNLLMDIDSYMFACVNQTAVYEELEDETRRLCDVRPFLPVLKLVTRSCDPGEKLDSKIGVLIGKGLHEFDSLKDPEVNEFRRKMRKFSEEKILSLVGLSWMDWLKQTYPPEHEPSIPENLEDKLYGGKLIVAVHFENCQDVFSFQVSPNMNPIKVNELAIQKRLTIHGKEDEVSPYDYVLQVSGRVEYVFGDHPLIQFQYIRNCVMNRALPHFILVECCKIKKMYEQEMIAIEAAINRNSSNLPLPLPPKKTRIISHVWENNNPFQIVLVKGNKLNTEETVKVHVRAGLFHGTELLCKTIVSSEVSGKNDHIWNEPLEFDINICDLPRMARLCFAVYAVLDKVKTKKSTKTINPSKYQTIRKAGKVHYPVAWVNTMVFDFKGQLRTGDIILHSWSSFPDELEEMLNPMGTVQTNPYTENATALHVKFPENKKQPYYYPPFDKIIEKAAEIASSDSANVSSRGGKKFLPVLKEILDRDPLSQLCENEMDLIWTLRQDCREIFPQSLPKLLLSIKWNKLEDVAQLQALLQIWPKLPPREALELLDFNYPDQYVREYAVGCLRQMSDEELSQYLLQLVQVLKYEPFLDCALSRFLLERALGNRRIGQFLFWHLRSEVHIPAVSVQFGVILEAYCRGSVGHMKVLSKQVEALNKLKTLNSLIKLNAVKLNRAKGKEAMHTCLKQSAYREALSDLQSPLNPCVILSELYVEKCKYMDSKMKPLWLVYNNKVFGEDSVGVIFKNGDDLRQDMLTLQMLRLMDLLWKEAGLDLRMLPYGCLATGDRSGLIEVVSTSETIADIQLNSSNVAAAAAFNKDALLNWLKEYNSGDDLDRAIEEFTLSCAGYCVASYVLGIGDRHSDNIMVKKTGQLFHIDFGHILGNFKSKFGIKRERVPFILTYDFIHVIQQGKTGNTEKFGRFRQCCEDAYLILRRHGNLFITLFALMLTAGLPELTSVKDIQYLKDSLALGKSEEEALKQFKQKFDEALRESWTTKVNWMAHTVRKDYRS
T1 sequence (P27986 whole entry partner): as the sequence (P27986 whole entry partner) above

Compound | IC50 (PI3K β) | IC50 (PI3Kα) | Inhibition of PI3Kγ (in words) (PI3Kγ) | IC50 (PI3Kγ) | Inhibition of PI3Kδ (in words) (PI3Kδ) | IC50 (PI3Kδ) | Inhibition of PI3K β (in words) (PI3K β) | Inhibition of PI3Kα (in words) (PI3Kα) | STING activation (interferon signal) (STING) | BMDC activation at different concentrations ([1]; FIG. 5) | mIFNβ secretion [2] | mIFNβ secretion at different concentrations ([2]; BMDC, FIG. 7) | M1 macrophage percentage among all the macrophages [3] | Macrophage polarization (M1 ratio) at different concentrations ([3]; FIG. 10) | Median survival [4] | Macrophage polarization (TNFα secretion) [5] | BMDC activation (upregulation of CD80 and CD86) ([1]; 10 μM, FIG. 4)
CCOC(=O)Cn1cc(-c2cccc3cc([C@H](C)NC(=O)c4c(N)nn5cccnc45)n(-c4ccccc4)c(=O)c23)nn1 [DMA01-132] | 374 nM | 372 nM | inhibited both PI3Kγ and PI3Kδ | 0.845 nM | inhibited both PI3Kγ and PI3Kδ | 0.381 nM |  |  |  |  |  |  |  |  |  |  | 
C[C@H](NC(=O)c1c(N)nn2cccnc12)c1cc2cccc(-c3cn(CC(=O)O)nn3)c2c(=O)n1-c1ccccc1 [DMA01-143, (S)-2-(4-(3-(1-(2-aminopyrazolo[1,5-a]pyrimidine-3-carboxamido)ethyl)-1-oxo-2-phenyl-1,2-dihydroisoquinolin-8-yl)-1H-1,2,3-triazol-1-yl) acetic acid] | 312 nM | 409 nM | inhibited both PI3Kγ and PI3Kδ | 5.34 nM | inhibited both PI3Kγ and PI3Kδ | 1.36 nM |  |  |  |  |  |  |  |  |  |  | 
C[C@H](NC(=O)c1c(N)nn2cccnc12)c1cc2cccc(-c3cn(CCO)nn3)c2c(=O)n1-c1ccccc1 [DMA01-148] | 548 nM | 1050 nM | selectively inhibited PI3Kγ, with similar efficacy compared to IPI-549 | 0.864 nM |  | 15.4 nM |  |  |  |  |  |  |  |  |  |  | 
COc1cc2cc(C(=O)CCC(=O)OCCn3cc(-c4cccc5cc([C@@H](C)NC(=O)c6c(N)nn7cccnc67)n(-c6ccccc6)c(=O)c45)nn3)sc2cc1OC [DMA01-166, (R)-2-(4-(3-(1-(2-aminopyrazolo[1,5-a]pyrimidine-3-carboxamido)ethyl)-1-oxo-2-phenyl-1,2-dihydroisoquinolin-8-yl)-1H-1,2,3-triazol-1-yl)ethyl 4-(5,6-dimethoxybenzo[b]thiophen-2-yl)-4-oxobutanoate] | > 10000 nM | > 10000 nM |  | 349 nM |  | 1250 nM | no effect | no effect | enhanced interferon signal compared to control and cGAMP group | dose independent BMDC activation effect | higher mIFNβ secretion compared to MSA-2 | dose independent BMDC activation effect | higher percentage of M1 macrophage compared to IPI-549, cGAMP, ADU and MSA-2 | dose independent macrophage polarization effect | 157.5 days |  | 
CCCCC/C=C/C/C=C\CCCCCCCC(=O)OCCn1cc(-c2cccc3cc([C@@H](C)NC(=O)c4c(N)nn5cccnc45)n(-c4ccccc4)c(=O)c23)nn1 [DMA01-170, 2-(4-(3-((R)-1-(2-aminopyrazolo[1,5-a]pyrimidine-3-carboxamido)ethyl)-1-oxo-2-phenyl-1,2-dihydroisoquinolin-8-yl)-1H-1,2,3-triazol-1-yl)ethyl (9Z,12E)-octadeca-9,12-dienoate] |  |  |  |  |  |  |  |  |  |  |  |  | mild effects on increasing M1 percentage |  |  | showed macrophage polarization effects compared to M2 control group | 
C[C@@H](NC(=O)c1c(N)nn2cccnc12)c1cc2cccc(-c3cn(CCOC(=O)[C@H](N)Cc4cn(C)c5ccccc45)nn3)c2c(=O)n1-c1ccccc1 [DMA01-173, 2-(4-(3-((R)-1-(2-aminopyrazolo[1,5-a]pyrimidine-3-carboxamido)ethyl)-1-oxo-2-phenyl-1,2-dihydroisoquinolin-8-yl)-1H-1,2,3-triazol-1-yl)ethyl 1-methyl-D-tryptophanate] |  |  |  |  |  |  |  |  | did not stimulate STING activation |  | cannot enhance mIFNβ secretion |  | mild effects on increasing M1 percentage |  |  | showed macrophage polarization effects compared to M2 control group | did not stimulate DC activation
